Measured values reported in the OligoGym collection.
Values joined by “and” are separate entries in the source; they are usually repeats but may differ in a detail not shown here. Identical values can stand only once. After the bases stand the sugars from the 5' end (letter, count) and the backbone: PS all phosphorothioate, else s phosphorothioate and o phosphodiester by linkage. Methylation of C is not given here. e = 2'-O-(2-methoxyethyl) (MOE); k = constrained ethyl (cEt); d = 2'-deoxy (DNA)

biological target: IRF4; details: ASO, MM.1R, 0.0625 µM

| Sequence | target mRNA inhibition |
| --- | --- |
| ATTATATACTGGTTGG (sugars k3 d10 k3, PS) | 3% and 9% |

same assay, conditions: ASO, MM.1R, 0.074 µM

| Sequence | target mRNA inhibition [%] |
| --- | --- |
| ATAGCTGTTTATTTCC (sugars k3 d10 k3, PS) | 7 |
| CAATTTATGCCATGGA (sugars k3 d10 k3, PS) | -4 |

same assay, conditions: ASO, MM.1R, 0.222 µM

| Sequence | target mRNA inhibition [%] |
| --- | --- |
| ATAGCTGTTTATTTCC (sugars k3 d10 k3, PS) | 12 |
| CAATTTATGCCATGGA (sugars k3 d10 k3, PS) | 5 |

same assay, conditions: ASO, MM.1R, 0.25 µM

| Sequence | target mRNA inhibition |
| --- | --- |
| ATTATATACTGGTTGG (sugars k3 d10 k3, PS) | 15% and 25% |

same assay, conditions: ASO, MM.1R, 0.666 µM

| Sequence | target mRNA inhibition [%] |
| --- | --- |
| ATAGCTGTTTATTTCC (sugars k3 d10 k3, PS) | 24 |
| CAATTTATGCCATGGA (sugars k3 d10 k3, PS) | 9 |

same assay, conditions: ASO, MM.1R, 1 µM

| Sequence | target mRNA inhibition |
| --- | --- |
| ATATGGCTAAACCTGG (sugars k3 d10 k3, PS) | 18% |
| ATCACCGAACACACCA (sugars k3 d10 k3, PS) | -12% |
| ATCATCCGAAAAGACT (sugars k3 d10 k3, PS) | 4% |
| ATCCCTTATTAGACTG (sugars k3 d10 k3, PS) | -7% |
| ATCTGAGACTACACCT (sugars k3 d10 k3, PS) | -8% |
| ATGAACCCTAAGTTTA (sugars k3 d10 k3, PS) | -4% |
| ATGAGGGACCAGAACT (sugars k3 d10 k3, PS) | 6% |
| ATGCCATGGACAAGTT (sugars k3 d10 k3, PS) | 18% |
| ATGCGGAGGTTCCTTG (sugars k3 d10 k3, PS) | 47% and 52% |
| ATGCTGAACCCCACAG (sugars k3 d10 k3, PS) | 16% |
| ATGGCAAAAGACCAAT (sugars k3 d10 k3, PS) | -5% |
| ATGGCGCATAGGTCCT (sugars k3 d10 k3, PS) | -5% |
| ATGGCTAAACCTGGCA (sugars k3 d10 k3, PS) | 22% |
| ATGTAAAGTCTGCTGA (sugars k3 d10 k3, PS) | 20% |
| ATGTGATAGCTGAGCT (sugars kdddddddddkekeke, PS) | 15% |
| ATGTGATAGCTGAGCT (sugars kkdddddddddekeke, PS) | 2% |
| ATGTGATAGCTGAGCT (sugars kkdddddddddkdkdk, PS) | 27% |
| ATGTGTATTACTCTTA (sugars k2 d9 e3 k2, PS) | 40% and 44% |
| ATGTGTATTACTCTTA (sugars kkdddddddddekeke, PS) | 60% and 61% |
| ATGTTAGCCAATTCCT (sugars kddddddddddkekek, PS) | 0% and 7% |
| ATTACTCTTAGGCACA (sugars k3 d10 k3, PS) | 30% |
| ATTATATACTGGTTGG (sugars k3 d10 k3, PS) | 39% and 57% |

| Sequence | target mRNA inhibition |
| --- | --- |
| ATTATATACTGGTTGG (sugars kddddddddddkekek, PS) | 22% |
| ATTATATACTGGTTGG (sugars kkddddddddddkeke, PS) | 32% |
| ATTATATACTGGTTGG (sugars kkdddddddddkekek, PS) | 52% |
| ATTCAATGCACCCCCC (sugars k3 d10 k3, PS) | 2% |
| ATTCAGGAGAGCCCCT (sugars k3 d10 k3, PS) | -15% |
| ATTTCCGGGTGTGGCT (sugars k3 d10 k3, PS) | 7% |
| CAAGCAGTGATGTCAG (sugars k2 d9 e3 k2, PS) | 15% and 8% |
| CAAGCAGTGATGTCAG (sugars kdddddddddkekeke, PS) | 10% and 12% |
| CAAGTGTCTAAAGTCC (sugars kkddddddddddkeke, PS) | 16% and 17% |
| CACATCAATGTTTTAG (sugars kkddddddddddkeke, PS) | 25% and 39% |
| CACATCAATGTTTTAG (sugars kkdddddddddekeke, PS) | 28% and 27% |
| CACATGATAAGGCACT (sugars k3 d10 k3, PS) | 21% |
| CACCAATGGCAGCACC (sugars k3 d10 k3, PS) | 16% |
| CACCAGCCATCGGCAG (sugars k3 d10 k3, PS) | -19% |
| CACCTCTTCACTACCT (sugars k3 d10 k3, PS) | 0% |
| CACTCTTACTCCGCTG (sugars k3 d10 k3, PS) | -12% |
| CACTTTGTACGGGTCT (sugars k3 d10 k3, PS) | 11% |
| CAGAGCCAACTTATAG (sugars k3 d10 k3, PS) | 30% and 43% |
| CAGATTGAATCCATAT (sugars k3 d10 k3, PS) | 20% |
| CAGGAACTGACCTAAC (sugars k3 d10 k3, PS) | -7% |
| CAGGCGGACACGCCCG (sugars k3 d10 k3, PS) | -5% |
| CAGTGACTTGCATCCA (sugars kddddddddddkekek, PS) | 29% |

same assay, conditions: ASO, MM.1R, 2 µM

| Sequence | target mRNA inhibition [%] |
| --- | --- |
| ATAGCTGTTTATTTCC (sugars k3 d10 k3, PS) | 50 |
| CAATTTATGCCATGGA (sugars k3 d10 k3, PS) | 40 |

same assay, conditions: ASO, MM.1R, 4 µM

| Sequence | target mRNA inhibition |
| --- | --- |
| ATTATATACTGGTTGG (sugars k3 d10 k3, PS) | 77% and 74% |

same assay, conditions: ASO, SK-MEL-28, 0.185 µM

| Sequence | target mRNA inhibition [%] |
| --- | --- |
| ATAGCTGTTTATTTCC (sugars k3 d10 k3, PS) | 13 |

same assay, conditions: ASO, SK-MEL-28, 4 µM

| Sequence | target mRNA inhibition |
| --- | --- |
| ATAGCTGTTTATTTCC (sugars k3 d10 k3, PS) | 62% |
| ATAGGTATACTTAAGC (sugars k3 d10 k3, PS) | 80% and 79% |
| ATAGTTAAGTACTTGG (sugars k3 d10 k3, PS) | 48% |
| ATATAGAATTAGGTGC (sugars k3 d10 k3, PS) | 16% |
| ATATAGTTGTCTGGCT (sugars k3 d10 k3, PS) | 41% |
| ATATATGACGACTTAA (sugars k3 d10 k3, PS) | 6% |
| ATATCCTGTAGTATGA (sugars k3 d10 k3, PS) | 57% |
| ATATTAGAGACTGTAT (sugars k3 d10 k3, PS) | 25% |
| ATCAGAATGTTTCGAC (sugars k3 d10 k3, PS) | 46% |
| ATCGAATCTGCCCAAA (sugars k3 d10 k3, PS) | 26% |
| ATCTAAGGCAAGCTGA (sugars k3 d10 k3, PS) | 37% |
| ATCTACCTCAGTTTGT (sugars k3 d10 k3, PS) | 42% |
| ATCTGGATGAGCTTAC (sugars k3 d10 k3, PS) | 38% |
| ATGAAAGTGTGTGCAA (sugars k3 d10 k3, PS) | 64% |
| ATGAACGGAAGTTTAC (sugars k3 d10 k3, PS) | 54% |
| ATGACATGCTTTGTCC (sugars k3 d10 k3, PS) | 46% |
| ATGAGAAACGGCCTGG (sugars k3 d10 k3, PS) | 64% |
| ATGAGAACTTTGATGT (sugars k3 d10 k3, PS) | 15% |
| ATGCGAAGAATTTTAG (sugars k3 d10 k3, PS) | 21% |
| ATGGAAATACGACAAC (sugars k3 d10 k3, PS) | 35% |

| Sequence | target mRNA inhibition |
| --- | --- |
| ATGTAGTTGTGAACCT (sugars k3 d10 k3, PS) | 39% |
| ATGTATACCAACGACA (sugars k3 d10 k3, PS) | 63% |
| ATGTGGAGCTCCTCCT (sugars k3 d10 k3, PS) | 20% |
| ATTAAAGAGCGCATTT (sugars k3 d10 k3, PS) | 13% |
| ATTCACACTGCCGTGA (sugars k3 d10 k3, PS) | 34% |
| ATTCATGATGTATACC (sugars k3 d10 k3, PS) | 62% |
| ATTGCCTGTTAAGTCC (sugars k3 d10 k3, PS) | 73% |
| ATTTACAGCATCTAAG (sugars k3 d10 k3, PS) | 47% |
| ATTTCATAGCTAGTTC (sugars k3 d10 k3, PS) | 44% |
| CAAAACCAGTACAGTC (sugars k3 d10 k3, PS) | 49% |
| CAAAATAGTCACTCAC (sugars k3 d10 k3, PS) | -3% |
| CAAACCCTACTGGGTA (sugars k3 d10 k3, PS) | 32% |
| CAAACTCCTCAGGGAA (sugars k3 d10 k3, PS) | 23% |
| CAAAGCATAGAGTCAC (sugars k3 d10 k3, PS) | 36% |
| CAACAGGCGGACACGC (sugars k3 d10 k3, PS) | 42% |
| CAACCATTTTCACAAG (sugars k4 d8 k4, PS) | 5% |
| CAAGAAGGATGGGACC (sugars k3 d10 k3, PS) | 25% |
| CAAGCTGGGCCTTGCC (sugars k3 d10 k3, PS) | 34% |
| CAAGGAGATCCACCTG (sugars k3 d10 k3, PS) | -21% |
| CAATGAACGGAAGTTT (sugars k3 d10 k3, PS) | 33% |

| Sequence | target mRNA inhibition |
| --- | --- |
| CAATTTATGCCATGGA (sugars k3 d10 k3, PS) | 62% |
| CACAGAGGACTTCGGG (sugars k3 d10 k3, PS) | 49% |
| CACATAATCCAGTATC (sugars k3 d10 k3, PS) | 43% |
| CACGGACGGAGGCGGC (sugars k3 d10 k3, PS) | 18% |
| CACTACCATATTGGAA (sugars k3 d10 k3, PS) | 22% |
| CACTGAACCATGTTCC (sugars k3 d10 k3, PS) | 61% |
| CAGAAACCCTCATCAC (sugars k3 d10 k3, PS) | 4% |
| CAGAACGAGGTAAATC (sugars k3 d10 k3, PS) | 59% |
| CAGAATGAAGTTAAGG (sugars k3 d10 k3, PS) | 50% |
| CAGACCTTATGCTTGG (sugars k4 d8 k4, PS) | 26% |
| CAGAGTTGTTCCACCC (sugars k3 d10 k3, PS) | 62% |
| CAGATAACGAGGTGCC (sugars k3 d10 k3, PS) | 30% |
| CAGCAAAACGCAGAGC (sugars k3 d10 k3, PS) | 54% |
| CAGCAGGTTTTGAGAC (sugars k3 d10 k3, PS) | 20% |
| CAGCATATTACAAACG (sugars k3 d10 k3, PS) | 58% |
| CAGCATCTAAGGCAAG (sugars k3 d10 k3, PS) | 54% |
| CAGGAAACCGCTGGCA (sugars k3 d10 k3, PS) | 74% |
| CAGGGAGCGGCCGTGG (sugars k3 d10 k3, PS) | 17% |
| CAGTAACTTGACTTGA (sugars k3 d10 k3, PS) | 39% |

same assay, conditions: ASO, SK-MEL-28, 5 µM

| Sequence | target mRNA inhibition [%] |
| --- | --- |
| ATAGCTGTTTATTTCC (sugars k3 d10 k3, PS) | 75 |

same assay, conditions: ASO, SK-MEL-28, 15 µM

| Sequence | target mRNA inhibition [%] |
| --- | --- |
| ATAGCTGTTTATTTCC (sugars k3 d10 k3, PS) | 90 |
